Experimental findings from patent US20070270436A1, “NOVEL AMINO- AND IMINO-ALKYLPIPERAZINES” (Recordati Ireland Limited, priority 2006, published 2007) are described below.

Assay [1] addresses T1, human 5HT1A-serotonergic receptor (Homo sapiens, UniProt P08908).
T1 construct: expressed in transfected cells; host or cells: HeLa (human), stably transfected; membranes
T1 sequence (P08908 1-422): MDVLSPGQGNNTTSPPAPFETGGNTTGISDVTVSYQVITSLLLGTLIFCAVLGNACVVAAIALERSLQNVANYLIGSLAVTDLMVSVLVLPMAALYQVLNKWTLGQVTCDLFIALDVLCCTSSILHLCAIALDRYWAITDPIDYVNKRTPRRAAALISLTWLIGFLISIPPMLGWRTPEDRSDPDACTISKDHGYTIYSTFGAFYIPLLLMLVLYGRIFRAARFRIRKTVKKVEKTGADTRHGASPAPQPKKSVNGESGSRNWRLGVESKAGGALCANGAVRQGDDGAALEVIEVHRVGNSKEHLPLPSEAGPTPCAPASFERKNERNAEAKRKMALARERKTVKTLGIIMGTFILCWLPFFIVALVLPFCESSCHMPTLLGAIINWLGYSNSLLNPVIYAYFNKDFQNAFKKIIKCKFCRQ
As to the kind of experiment: Radioligand binding to recombinant 5-HT1A receptor ([3H]8-OH-DPAT, HeLa cell membranes). The following applies: 1 nM [3H]8-OH-DPAT; Ki from IC50 by the Cheng equation; read-out: Ki (nM), binding affinity for 5HT1A receptor. Put shortly:
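Membranes from HeLa cells stably expressing human 5-HT1A incubated 30 min at 30 °C with 1 nM [3H]8-OH-DPAT in 50 mM Tris pH 7.4, 2.5 mM MgCl2, 10 μM pargyline; non-specific binding with 10 μM 5-HT. Filtration read-out; IC50 by curve fitting, converted to Ki via Cheng-Prusoff.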

The next assay has as its target T2, 5-HT1A receptors (Rattus norvegicus, UniProt P19327).
T2 construct: from tissue; host or cells: living male Sprague-Dawley rats (whole animal, behavioural read-out)
T2 sequence (P19327 1-422): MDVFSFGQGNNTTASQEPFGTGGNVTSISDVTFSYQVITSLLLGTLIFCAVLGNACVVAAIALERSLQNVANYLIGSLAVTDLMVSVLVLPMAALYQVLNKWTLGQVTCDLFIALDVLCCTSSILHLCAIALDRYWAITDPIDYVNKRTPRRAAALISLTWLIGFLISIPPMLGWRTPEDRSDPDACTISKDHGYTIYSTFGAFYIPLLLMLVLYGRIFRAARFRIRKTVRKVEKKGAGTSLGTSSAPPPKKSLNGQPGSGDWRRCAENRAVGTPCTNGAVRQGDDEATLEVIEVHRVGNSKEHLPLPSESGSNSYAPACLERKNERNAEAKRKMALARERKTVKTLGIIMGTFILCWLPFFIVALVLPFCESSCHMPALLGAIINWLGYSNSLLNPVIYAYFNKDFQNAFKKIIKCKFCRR
As to the kind of experiment: Inhibition of serotonergic syndrome (forepaw treading) induced by 8-OH-DPAT in rats (post-synaptic antagonism). The following applies: for inhibition at 10 mg/kg: rat. In kind it is in vivo.

Read-outs that look alike come from different tables or passages of the source.

On to `COc1ccccc1N1CCN(CCC(c2ccccc2F)C(C2CCCCC2)N(C)C(C)=O)CC1` (racemic) [Example 16, (RS,SR)- and (RS,RS)-N-{-1-Cyclohexyl-2-(2-fluorophenyl)-4-[4-(2-methoxyphenyl)piperazin-1-yl]butyl}-N-methylacetamide], for which the Ki (in general, a measure of affinity in units of concentration, obtained from inhibition or displacement) in assay [1] is 0.86 nM. Moreover, at 5-HT1A receptors (10 mg/kg p.o., 1 h before 8-OH-DPAT 1 mg/kg s.c.), the “% Inhibition of forepaw treading, 1 h” value was 80%. Moreover, on 5-HT1A receptors (10 mg/kg p.o., 4 h before 8-OH-DPAT 1 mg/kg s.c.), the “% Inhibition of forepaw treading, 4 h” value is on record as 69%.
For the compound `COc1ccccc1N1CCN(CC[C@@H](c2ccccc2F)[C@H](NC(=S)N(C)C)C2CCCCC2)CC1` (racemic) [Example 24, 3-{(RS,SR)-1-Cyclohexyl-2-(2-fluorophenyl)-4-[4-(2-methoxyphenyl)-piperazin-1-yl]butyl}-1,1-dimethylthiourea], the Ki in assay [1] is 1.23 nM. Besides, at 5-HT1A receptors (1 hour after oral administration), the “ED50 (dose inhibiting by 50% the forepaw treading) (95% CL), 1 hour” value is reported as 2.86 (2.12-3.8) mg/kg p.o. Moreover, at 5-HT1A receptors (4 hours after oral administration), the “ED50 (dose inhibiting by 50% the forepaw treading) (95% CL), 4 hours” value is 3.67 (2.81-4.93) mg/kg p.o. Also, the inhibition (commonly the percentage by which the read-out fell short of the control) at 10 mg/kg at 5-HT1A receptors (10 mg/kg p.o., 1 h before 8-OH-DPAT 1 mg/kg s.c., read-out: % Inhibition of forepaw treading, 1 h) was determined as 100%; at 5-HT1A receptors (10 mg/kg p.o., 4 h before 8-OH-DPAT 1 mg/kg s.c., read-out: % Inhibition of forepaw treading, 4 h) it was 90%.
